Measurements as given in patent EP4417607A1, “HETEROCYCLIC COMPOUND AS SOS1 INHIBITOR AND USES THEREOF” (Nanjing Zaiming Pharmaceutical Co., Ltd., priority 2021, dated 2023).

Key:
H358 cells = test: H358 cell proliferation inhibition (CellTiter-Glo luminescent cell viability assay); format: cell-based; settings: Homo sapiens, NCI-H358, 168 h, 7 days
In short: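 H358 cells seeded at 3000 cells/well in RPMI1640/10% FBS, treated with compound for 7 days at 37 °C/5% CO2. Viability read by CellTiter-Glo 3D luminescence, normalised to cell-free (100%) and compound-free (0%) controls; IC50 fitted from 8 concentrations by four-parameter curve.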

[1] = test system: p-ERK pathway in H358 cells; test: p-ERK pathway inhibition in H358 cells (Advanced phospho-ERK (Thr202/Tyr204) cellular kit, HTRF); format: cell-based; settings: Homo sapiens, NCI-H358, 1 h compound incubation
In short: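 IC50 from an 8-point four-parameter fit of % inhibition of ERK Thr202/Tyr204 phosphorylation, measured by HTRF 665/620 ratio in lysates. H358 cells were seeded at 50000/well, starved overnight without serum, and exposed to compound 1 h at 37 °C; controls were cell-free (100%) and untreated (0%).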

Row | IC50 (H358 cells) [nM] | IC50 [1] [nM] | Compound
1 | 86.6 | 81.2 | Cc1nc(N[C@H](C)c2cccc(C(F)F)c2F)c2cn(C3(CF)CC3)c(=O)c(C3(O)CCOC3)c2n1 (stereo partly drawn) [Example 139, 4-(((R)-1-(3-(difluoromethyl)-2-fluorophenyl)ethyl)amino)-6-(1-(fluoromethyl)cyclopropyl)-8-(3-hydroxytetrahydrofuran-3-yl)-2-methylpyrido[4,3-d]pyrimidine-7(6H)-one]
2 | 23.7 | 35.5 | Cc1nc(N[C@H](C)c2cccc(C(F)F)c2F)c2cn(C3(CF)CC3)c(=O)c(N3CCN(CC4(C)COC4)CC3)c2n1 [Example 109, (R)-4-((1-(3-(difluoromethyl)-2-fluorophenyl)ethyl)amino)-6-(1-(fluoromethyl)cyclopropyl)-2-methyl-8-(4-((3-methyloxetan-3-yl)methyl)piperazin-1-yl)pyrido[4,3-d]pyrimidine-7(6H)-one]
3 | 15.8 | 34.8 | Cc1nc(N[C@H](C)c2cccc(C(F)F)c2F)c2cn(C3(CF)CC3)c(=O)c(N3CCN(C4(C)COC4)CC3)c2n1 [Example 143]
4 | 35.4 | 16.7 | [2H]C([2H])([2H])[C@@H](Nc1nc(C)nc2c(N3CCOCC3)c(=O)n(C3(CF)CC3)cc12)c1cccc(C(F)F)c1F [Example 90]
5 | 51.5 | 138 | Cc1nc(N[C@H](C)c2cccc(C(F)F)c2F)c2cn(C3(CF)CC3)c(=O)c(N3CCC(N4CCCC4)CC3)c2n1 [Example 159]
6 | 37.3 | 84.3 | Cc1nc(N[C@H](C)c2cccc(C(F)F)c2F)c2cn(C3(CF)CC3)c(=O)c(N3CCN(CC4CC4)CC3)c2n1 [Example 132, (R)-8-(4-(cyclopropylmethyl)piperazin-1-yl)-4-((1-(3-(difluoromethyl)-2-fluorophenyl)ethyl)amino)-6-(1-(fluoromethyl)cyclopropyl)-2-methylpyrido[4,3-d]pyrimidine-7(6H)-one]
7 | 73.1 | 41.7 | Cc1nc(N[C@H](C)c2cccc(C(F)F)c2F)c2cn(C3(CF)CC3)c(=O)c(N3CCC4(CC3)COC4)c2n1 [Example 151, (R)-4-((1-(3-(difluoromethyl)-2-fluorophenyl)ethyl)amino)-6-(1-(fluoromethyl)cyclopropyl)-2-methyl-8-(2-oxa-7-azaspiro[3.5]nonan-7-yl)pyrido[4,3-d]pyrimidine-7(6H)-one]
8 | 11.7 | 100 | Cc1nc(N[C@H](C)c2cccc(C(F)F)c2F)c2cn(C3(CF)CC3)c(=O)c(N3CCN(C)CC3)c2n1 [Example 38, (R)-4-((1-(3-(difluoromethyl)-2-fluorophenyl)ethyl)amino)-6-(1-(fluoromethyl)cyclopropyl)-2-methyl-8-(4-methylpiperazin-1-yl)pyrido[4,3-d]pyrimidine-7(6H)-one]
9 | 44 | 55.6 | Cc1nc(N[C@H](C)c2cccc(C(F)F)c2F)c2cn(C3(CF)CC3)c(=O)c(N3CCc4cn(C)nc4C3)c2n1 [Example 98, (R)-4-((1-(3-(difluoromethyl)-2-fluorophenyl)ethyl)amino)-6-(1-(fluoromethyl)cyclopropyl)-2-methyl-8-(2-methyl-2,4,5,7-tetrahydro-6H-pyrazolo[3,4-c]pyridin-6-yl)pyrido[4,3-d]pyrimidine-7(6H)-one]
10 | 31.4 | 18.9 | Cc1nc(N[C@H](C)c2cccc(C(F)F)c2F)c2cn(C3(CF)CC3)c(=O)c(N3CCC(C)(O)CC3)c2n1 [Example 45, (R)-4-((1-(3-(difluoromethyl)-2-fluorophenyl)ethyl)amino)-6-(1-(fluoromethyl)cyclopropyl)-8-(4-hydroxy-4-methylpiperidin-1-yl)-2-methylpyrido[4,3-d]pyrimidine-7(6H)-one]
11 | 42.3 | 80.2 | Cc1nc(N[C@H](C)c2cccc(C(F)F)c2F)c2cn(C3(CF)CC3)c(=O)c(N3CCOC[C@@H]3CF)c2n1 [Example 136, 4-(((R)-1-(3-(difluoromethyl)-2-fluorophenyl)ethyl)amino)-6-(1-(fluoromethyl)cyclopropyl)-8-((R)-3-(fluoromethyl)morpholinyl)-2-methylpyrido[4,3-d]pyrimidine-7(6H)-one]
12 | 50.5 | 41.8 | Cc1nc(N[C@H](C)c2cccc(C(F)F)c2F)c2cn(C3(CF)CC3)c(=O)c(N3CCO[C@H](C)C3)c2n1 [Example 42, 4-(((R)-1-(3-(difluoromethyl)-2-fluorophenyl)ethyl)amino)-6-(1-(fluoromethyl)cyclopropyl)-2-methyl-8-((R)-2-methylmorpholine)pyrido[4,3-d]pyrimidine-7(6H)-one]
13 | 41.9 | 62.3 | [2H][C@](C)(Nc1nc(C)nc2c(N3CCS(=O)(=O)CC3)c(=O)n(C3(CF)CC3)cc12)c1cccc(C(F)F)c1F [Example 124, (R)-4-((1-(3-(difluoromethyl)-2-fluorophenyl)ethyl-1-d)amino)-8-(1,1-dioxidothiomorpholinyl)-6-(1-(fluoromethyl)cyclopropyl)-2-methylpyrido[4,3-d]pyrimidine-7(6H)-one]
14 | 32.7 | 38.7 | Cc1nc(N[C@H](C)c2cccc(C(F)F)c2F)c2cn(C3(CF)CC3)c(=O)c(N3CCOC[C@H]3C)c2n1 [Example 39, 4-(((R)-1-(3-(difluoromethyl)-2-fluorophenyl)ethyl)amino)-6-(1-(fluoromethyl)cyclopropyl)-2-methyl-8-((R)-3-methylmorpholine)pyrido[4,3-d]pyrimidine-7(6H)-one]

Second part, the molecule before the results:

Row | Compound | IC50 (H358 cells) [nM] | IC50 [1] [nM]
15 | Cc1nc(N[C@H](C)c2cccc(C(C)(F)F)c2F)c2cn(C3(CF)CC3)c(=O)c(N3CCOC[C@@H]3C)c2n1 [Example 114, 4-(((R)-1-(3-(1,1-difluoroethyl)-2-fluorophenyl)ethyl)amino)-6-(1-(fluoromethyl)cyclopropyl)-2-methyl-8-((S)-3-methylmorpholine)pyrido[4,3-d]pyrimidine-7(6H)-one] | 24.6 | 54.8
16 | Cc1nc(N[C@H](C)c2cccc(C(F)F)c2F)c2cn(C3(CF)CC3)c(=O)c(N(C)c3cnn(C)c3)c2n1 [Example 65, (R)-4-((1-(3-(difluoromethyl)-2-fluorophenyl)ethyl)amino)-6-(1-(fluoromethyl)cyclopropyl)-2-methyl-8-(methyl(1-methyl-1H-pyrazol-4-yl)amino)pyrido[4,3-d]pyrimidine-7(6H)-one] | 66.4 | 27
17 | Cc1nc(N[C@H](C)c2cccc(C#N)c2C)c2cn(C3(CF)CC3)c(=O)c(-c3ccc(C#N)cc3)c2n1 [Example 71, (R)-3-(1-((8-(4-cyanophenyl)-6-(1-(fluoromethyl)cyclopropyl)-2-methyl-7-oxo-6,7-dihydropyrido[4,3-d]pyrimidin-4-yl)amino)ethyl)-2-methylbenzonitrile] | 114 | 156
18 | Cc1nc(N[C@H](C)c2cccc(C(F)F)c2F)c2cn(C3(CF)CC3)c(=O)c(C3(O)CCN(C4COC4)CC3)c2n1 [Example 145, (R)-4-((1-(3-(difluoromethyl)-2-fluorophenyl)ethyl)amino)-6-(1-(fluoromethyl)cyclopropyl)-8-(4-hydroxy-1-(oxetan-3-yl)piperidin-4-yl)-2-methylpyrido[4,3-d]pyrimidine-7(6H)-one] | 64.6 | 138
19 | COc1c(=O)n(C2(C)CCN(C(C)=S)C2)cc2c(N[C@H](C)c3cccc(C(F)F)c3F)nc(C)nc12 (some centres unmarked) [Example 19] | 69.6 | 52.5
20 | Cc1nc(N[C@H](C)c2cccc(C#N)c2C)c2cn(N3CCOCC3)c(=O)c(N3CCOCC3)c2n1 [Example 108, (R)-2-methyl-3-(1-((2-methyl-6,8-dimorpholine-7-oxo-6,7-dihydropyrido[4,3-d]pyrimidin-4-yl)amino)ethyl)benzonitrile] | 76.4 | 61.3
21 | COc1c(=O)n(C2(CF)CCN(C(C)=O)C2)cc2c(N[C@H](C)c3cccc([N+](=O)[O-])c3C)nc(C)nc12 (stereo partly drawn) [Example 16, 6-(1-acetyl-3-(fluoromethyl)pyrrolidin-3-yl)-8-methoxy-2-methyl-4-(((R)-1-(2-methyl-3-nitrophenyl)ethyl)amino)pyrido[4,3-d]pyrimidine-7(6H)-one] | 187 | 28
22 | [2H]C([2H])([2H])Oc1c(=O)n(C2(CF)CC2)cc2c(N[C@H](C)c3cccc([N+](=O)[O-])c3C)nc(C)nc12 [Example 30, (R)-6-(1-(fluoromethyl)cyclopropyl)-8-(methoxy-d3)-2-methyl-4-((1-(2-methyl-3-nitrophenyl)ethyl)amino)pyrido[4,3-d]pyrimidine-7(6H)-one] | 33.6 | 29.5
23 | COc1c(=O)n(C2(CF)CC2)cc2c(N[C@H](C)c3cccc([N+](=O)[O-])c3C)nc(C)nc12 [Example 29, (R)-6-(1-(fluoromethyl)cyclopropyl)-8-methoxy-2-methyl-4-((1-(2-methyl-3-nitrophenyl)ethyl)amino)pyrido[4,3-d]pyrimidine-7(6H)-one] | 78.7 | 71
24 | Cc1nc(N[C@H](C)c2cccc(C(F)F)c2F)c2cn(C3(CF)CC3)c(=O)c(N3[C@@H](C)COC[C@@H]3C)c2n1 [Example 127, 4-(((R)-1-(3-(difluoromethyl)-2-fluorophenyl)ethyl)amino)-8-((3S,5S)-3,5-dimethylmorpholinyl)-6-(1-(fluoromethyl)cyclopropyl)-2-methylpyrido[4,3-d]pyrimidine-7(6H)-one] | 90 | 72.5
25 | [2H][C@](C)(Nc1nc(C)nc2c(N3CCOCC3)c(=O)n(N3CCOCC3)cc12)c1cccc(C(F)F)c1F [Example 78, (R)-4-((1-(3-(difluoromethyl)-2-fluorophenyl)ethyl-1-d)amino)-2-methyl-6,8-dimorpholinepyrido[4,3-d]pyrimidine-7(6H)-one] | 71.1 | 39.6
